Measurements taken from EP3388439A1, “BIOTIN-CONJUGATED N-ACETYL GLYCOL SPLIT HEPARIN” (Leadiant Biosciences SA, priority 2017, dated 2018).

What was measured:
[1] = test system: HT1080 (human fibrosarcoma); experiment: SRB Cell Cytotoxicity Assay; type: cell-based; settings: 72h
Excerpt: (§1) SRB Cell Cytotoxicity Assay is based on the quantitative staining of cellular proteins by sulforhodamine B (SRB). This assay can be used for high-throughput drug screening (Vichai & Kirkitara, Nature Protocol. 2006, 1, 112). Sulforhodamine B is an anionic aminoxanthene dye that forms an electrostatic complex with the basic amino acid residues of proteins under moderately acid conditions, which provides a sensitive linear response.
(§2) To assess a putative antiproliferative activity of the selected compounds, HT1080 (human fibrosarcoma), U87MG (human glioblastoma astrocytoma) and U2OS (human osteosarcoma) cell lines were treated for 72h, in triplicate, with increasing concentrations of heparanase inhibitors. Inhibition of cell proliferation was then measured by the classical colorimetric SRB Cell Cytotoxicity assay. Absorbance was measured by spectrophotometer at a wavelength of 510 nm and cell proliferation was determined as percent with respect to control cells (cells treated with the vehicle alone). EC50 values were then determined by GraphPad Prism.
(§3) Results are summarized in the following Table 3, reporting the ability of anti-heparanase agents (test compounds) to reduce tumor growth (cytotoxic effect) on three tumor cell lines, evaluated at three concentrations. Results were expressed as a percentage of growth versus control.

[2] = test system: U2OS (human osteosarcoma); experiment: SRB Cell Cytotoxicity Assay; type: cell-based; settings: 72h
Excerpt: as §1, §2, §3

[3] = test system: U87MG (human glioblastoma astrocytoma); experiment: SRB Cell Cytotoxicity Assay; type: cell-based; settings: 72h
Excerpt: as §1, §2, §3

[4] = test system: U87MG (human glioblastoma astrocytoma); experiment: Cell adhesion assay on matrigel coated wells; type: cell-based; settings: treated 18-20h
Protocol: Cell surface, non-integrin molecules such as heparan sulfate proteoglycans (HSPGs) may be involved in the regulation of early adhesive stages of cell-ECM interactions. A cell adhesion assay has been employed to determine if the newly designed heparanase inhibitors were able to interfere with adhesion properties of cancer cells.
For the assay set-up, U87MG (human glioblastoma astrocytoma) cells were treated for 18-20h with test compounds, in complete medium supplemented with 10% FCS. Then, cells were collected, washed in complete medium, and added to matrigel coated wells in triplicate, at previously identified optimal seeding density, and incubated at 37 °C in complete medium for times ranging from 15 minutes to 4h (Goldshmidt et al, FASEB, 2003). After incubation, the wells were washed three times with serum-free medium and the remaining firmly attached cells were stained with crystal violet 0.1 reagent. Optical density was measure at 500 nm by Victor 3 (Perkin-Elmer) plate analyzer. Each experiment was repeated three times.

heparanase = molecular target: T1, heparanase (Homo sapiens, UniProt Q9Y251); experiment: Fondaparinux heparanase assay (AGA*IA assay), colorimetric WST-1; type: biochemical; settings: 2.5 nM heparanase, 100 µM fondaparinux, pH 5.0, 3 h at 37°C
T1 sequence (Q9Y251 158-543 limits assumed): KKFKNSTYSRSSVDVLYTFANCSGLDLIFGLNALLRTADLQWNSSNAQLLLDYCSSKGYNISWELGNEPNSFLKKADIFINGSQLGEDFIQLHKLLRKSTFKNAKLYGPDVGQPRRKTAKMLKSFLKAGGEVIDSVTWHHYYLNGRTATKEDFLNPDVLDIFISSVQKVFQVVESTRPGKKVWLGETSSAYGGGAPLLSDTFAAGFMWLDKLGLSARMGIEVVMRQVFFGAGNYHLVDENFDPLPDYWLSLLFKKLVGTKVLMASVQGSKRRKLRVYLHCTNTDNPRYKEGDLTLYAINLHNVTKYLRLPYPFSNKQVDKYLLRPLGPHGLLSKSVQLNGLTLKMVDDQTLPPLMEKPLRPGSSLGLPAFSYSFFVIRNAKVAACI
T1 sequence (Q9Y251 36-109 limits assumed): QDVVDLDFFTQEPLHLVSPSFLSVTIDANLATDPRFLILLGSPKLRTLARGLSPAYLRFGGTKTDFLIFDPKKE
Protocol: In order to determinate their activity as potent heparanase inhibitor, compounds were tested in a simple, accurate and robust microplate assay based on the cleavage of the synthetic heparin fragment, the pentasaccharide Fondaparinux (AGA*IA). This assay was originally developed by Hammond and coworkers [Hammond E, Li CP, Ferro V. Development of a colorimetric assay for heparanase activity suitable for kinetic analysis and inhibitor screening. Anal. Biochem. 2010, 396(1), 112-116], where Fondaparinux corresponds to the methyl glycoside of the antithrombin III (ATIII)-activating pentasaccharide sequence of heparin. Fondaparinux is cleaved by heparanase to generate a reducing disaccharide, which can be quantitatively measured via a colorimetric or a fluorescence assay, the last by the fluorescent sensor polymer-H [Schiemann S, Lühn S, Alban S. Development of both colorimetric and fluorescence heparinase activity assays using fondaparinux as substrate. […]
Assay was carried out with 100 µl/well of assay solution containing 40 mM sodium acetate buffer (pH 5.0), 100 µM fondaparinux, 2.5 nM heparanase and serial dilutions of test compounds (tested in triplicate). […] Then, the absorbance at 560 nm was measured through a microplate reader (Victor 3, Perkin Elmer).
Finally, the measurements were corrected by subtracting both the reagent background and the inner absorbance value of test compound. […]

[5] = test system: luciferase-labelled CAG myeloma cells; settings: NOD/SCID mice, 1000 µg/mouse intraperitoneal twice a day from day 9 to day 29; Figure 2
Protocol: Briefly, luciferase-labelled CAG myeloma cells (5x106; same cells) were injected subcutaneously into NOD/SCID mice (n=5). Mice were treated with compounds (1000 µg/mouse, injected intraperitoneal twice a day, starting on day 9 of cell inoculation).
Mice were injected with cells on day ONE and the first injection of compounds was given starting on day NINE, twice a day, including weekends. Tumor growth was examined by IVIS imaging prior to the first injection of compounds and once a week thereafter. The experiment was terminated on day TWENTYNINE (Figure 2).
IVIS imaging. Bioluminescent imaging of the luciferase-expressing tumors was performed with a highly sensitive, cooled charge coupled device (CCD) camera mounted in a light-tight specimen box (IVIS; Xenogen Corp., Waltham, MA). Briefly, mice were injected intraperitoneally with D-luciferin substrate at 150 mg/kg, anesthetized and placed onto a stage inside the light-tight camera box, with continuous exposure to isoflurane (EZAnesthesia, Palmer, PA). Light emitted from the bioluminescent cells was detected by the IVIS camera system with images quantified for tumor burden using a log-scale color range set at 5×10^4 to 1×10^7 and measurement of total photon counts per second (PPS) using Living Image software (Xenogen).

Row | Substance | Percentage tumor growth versus control HT1080 ([1]; 11.1 µM) | Percentage tumor growth versus control HT1080 ([1]; 33.3 µM) | Percentage tumor growth versus control HT1080 ([1]; 100 µM) | Percentage tumor growth versus control U2OS ([2]; 11.1 µM) | Percentage tumor growth versus control U2OS ([2]; 33.3 µM) | Percentage tumor growth versus control U2OS ([2]; 100 µM) | Percentage tumor growth versus control U87MG ([3]; 11.1 µM) | Percentage tumor growth versus control U87MG ([3]; 33.3 µM) | Percentage tumor growth versus control U87MG ([3]; 100 µM) | Test compounds adhesion versus basal (100%) ([4]; 0.1 µM) | Test compounds adhesion versus basal (100%) ([4]; 1 µM) | Test compounds adhesion versus basal (100%) ([4]; 10 µM) | IC50 (heparanase) | inhibition of CAG myeloma cell growth [5]
1 | N-desulfated N-acetylated glycol split heparin -Reducing end-NH-CH2-1,2,3-Triazole-4, N-Glycine-CONH-(CH2)5-NH-Biotin with a substitution degree on the R3 position of about 2 % [SST0764NA1] | ~ 100% | ~ 100% | 95.15% | 80.70% | 76.00% | 66.90% | 90.61% | 86.29% | 76.44% | 83.21% | 19.82% | 12.79% | ~4 nM | 
2 | N-desulfated N-acetylated glycol split heparin -(GGGS)3-NH-(CH2)5-NH-Biotin with a substitution degree on the R1 and/or R1' positions of about 7% [SST0761NA1] | 99.98% | 98.83% | 75.02% | 85.3% | 79.5% | 69.3% | 84.47% | 75.00% | 73.23% | 57.55% | 13.25% | 21.46% | ~3 nM | reached statistical significance
